Data taken from patent publication US20060154243A1 (priority 2003, published 2006).

What was measured:
[1] = tested on: serum 1a (individual 1, early serum); format: binding, human
[2] = tested on: serum 1b (individual 1, late serum); format: binding, human
serum 2 (individual 2) = format: binding, human
serum 6 (individual 6) = format: binding, human
serum 37 (individual 37) = format: binding, human
serum 62 (individual 62) = format: binding, human
serum London = format: binding, human
serum SARS-yellow = format: binding, human
serum SARS-green = format: binding, human
[3] = tested on: control serum LUMC (pooled serum of ten healthy hospital workers); format: binding, human
[4] = tested on: control serum Blood-bank (commercial negative donor pooled serum); format: binding, human
[5] = tested on: rabbit serum obtained by immunizing with SARS-CoV strain Frankfurt 1; format: binding
[6] = tested on: sera SARS-green, SARS-yellow, 1a, 1b, 2, 6, 37, 62 and London; format: binding, human

Sequence	Binding of serum 1a to linear peptides of Orf14 of SARS-CoV TOR2 [1]	Binding of serum 1b to linear peptides of Orf14 of SARS-CoV TOR2 [2]	Binding of serum 2 to linear peptides of Orf14 of SARS-CoV TOR2 (serum 2 (individual 2))	Binding of serum 6 to linear peptides of Orf14 of SARS-CoV TOR2 (serum 6 (individual 6))	Binding of serum 37 to linear peptides of Orf14 of SARS-CoV TOR2 (serum 37 (individual 37))	Binding of serum 62 to linear peptides of Orf14 of SARS-CoV TOR2 (serum 62 (individual 62))	Binding of serum London to linear peptides of Orf14 of SARS-CoV TOR2 (serum London)	Binding of serum SARS-yellow to linear peptides of Orf14 of SARS-CoV TOR2 (serum SARS-yellow)	Binding of serum SARS-green to linear peptides of Orf14 of SARS-CoV TOR2 (serum SARS-green)	Control serum LUMC linear peptides [3]	Control serum LUMC looped peptides [3]	Control Serum Blood-Bank Looped peptides [4]	Control serum Blood-bank linear peptides [4]	Recognition by the rabbit serum [5]	Recognition of the peptide by sera of individuals infected by SARS-CoV, form recognized [6]
AAVKPLLAPHHVVAV	0.8	0.6	1.0	0.7	0.9	0.9	0.8	0.8	0.6	1.0	0.7	0.6	1.0	recognized by the rabbit serum	–
ASTQREAEAAVKPLL	0.4	0.3	0.4	0.5	0.5	0.4	0.4	0.4	0.4	0.4	0.8	0.9	0.5	–	recognized in looped form
AVKPLLAPHHVVAVI	0.6	0.4	0.5	0.5	0.7	0.5	0.5	0.6	0.3	0.6	0.7	0.7	0.7	recognized by the rabbit serum	–
CQKASTQREAEAAVK	0.3	0.2	0.3	0.2	0.3	0.2	0.2	0.1	0.0	0.2	0.5	0.7	0.2	–	recognized in looped form
CYNFLKEQHCQKAST	0.5	0.3	0.5	0.5	0.6	0.4	0.7	0.1	0.4	0.3	0.5	0.6	0.4	–	recognized in looped form
EAAVKPLLAPHHVVA	0.6	0.5	0.7	0.5	0.7	0.6	0.8	0.6	0.6	0.8	0.7	0.8	0.6	recognized by the rabbit serum	–
EQHCQKASTQREAEA	0.4	0.4	0.6	0.4	0.5	0.3	0.5	0.4	0.3	0.4	0.8	0.9	0.5	–	recognized in looped form
FLKEQHCQKASTQRE	0.3	0.3	0.3	0.2	0.4	0.3	0.3	0.2	0.1	0.3	1.1	0.9	0.4	–	recognized in looped form
VAVIQEIQLLAAVGE	0.5	0.4	0.3	0.4	0.5	0.3	0.3	0.2	0.3	0.3	0.6	0.6	0.3	–	–
VGEILLLEWLAEVVK	0.5	0.4	0.4	0.5	0.6	0.4	0.5	0.4	0.2	0.6	0.8	0.7	0.5	–	–
VIQEIQLLAAVGEIL	0.5	0.4	0.4	0.3	0.6	0.4	0.4	0.3	0.5	0.6	0.9	0.5	0.4	–	–
VKPLLAPHHVVAVIQ	0.6	0.5	0.6	0.5	0.7	0.5	0.6	0.4	0.3	0.6	0.6	0.7	0.7	recognized by the rabbit serum	–
VVAVIQEIQLLAAVG	0.8	0.7	0.7	1.3	0.6	0.8	1.0	0.4	0.5	1.1	0.4	0.5	1.1	–	–
